Experimental data from patent US8222260B2, “Substituted 6-anilinopurine derivatives as inhibitors of cytokinin oxidase/dehydrogenase and preparations containing these derivatives” (Univerzita Palackego V Olomouci, priority 2007, dated 2012).
Like-named read-outs stand apart in the source and are kept apart here.

How the values were obtained:
recombinant AtCKX2 = target: T1, recombinant AtCKX2 (Arabidopsis thaliana, UniProt Q9FUJ3); test: Inhibition of cytokinin oxidase/dehydrogenase activity (PMS/MTT microtitre plate assay); format: biochemical
T1 sequence (Q9FUJ3 23-501): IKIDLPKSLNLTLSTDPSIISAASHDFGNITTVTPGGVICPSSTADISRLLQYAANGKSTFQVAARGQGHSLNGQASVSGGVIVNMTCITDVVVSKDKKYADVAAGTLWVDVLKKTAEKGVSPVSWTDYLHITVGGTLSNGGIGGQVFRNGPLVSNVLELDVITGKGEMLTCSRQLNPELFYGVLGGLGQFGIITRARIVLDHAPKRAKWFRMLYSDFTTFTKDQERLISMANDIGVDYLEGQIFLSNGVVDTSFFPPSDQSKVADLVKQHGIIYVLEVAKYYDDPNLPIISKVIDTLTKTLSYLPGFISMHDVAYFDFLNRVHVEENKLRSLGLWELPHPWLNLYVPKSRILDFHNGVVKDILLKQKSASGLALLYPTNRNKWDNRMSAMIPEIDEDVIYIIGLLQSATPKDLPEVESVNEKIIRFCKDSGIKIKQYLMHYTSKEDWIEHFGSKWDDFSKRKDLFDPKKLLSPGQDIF
Protocol: IC50 determinations were done using the assay in microtitre plate. Each well contained 100 μL of PMS/MTT [phenazine methosulfate/3-(4,5-dimethylthiazol-2-yl)-2,5-diphenyltetrazolium bromide] reaction mixture (final concentrations: 0.1 M KH2PO4, pH 7.4, 1 mM MTT, 0.2 mM PMS) containing the tested compound (3×10^−7 M-3×10^−4 M) and 30 μM N^6-isopentenyladenine (iP) as a substrate. 100 μL of cell-free growth medium of S. cerevisiae strain 23344c ura^− harboring the plasmid pYES2-AtCKX2 was directly used as a source of AtCKX2. Plates were incubated in the dark for […] at 37° C. and the enzymatic reaction was stopped by 25 μL of 35% acetic acid. The absorbance at 578 nm was measured using spectrophotometer Tecan. Absorbance of the sample without iP was subtracted.
The IC50 value, the compound concentration that inhibits the enzyme activity to 50%, was calculated from the obtained dose response curves. The values shown in Table 9 are means of three replicates and the entire test was repeated at least twice.

AHK3 = target: T2, AHK3 (Arabidopsis thaliana, UniProt Q9C5U1); test: Activation of cytokinin receptors (E. coli KMI001 beta-galactosidase reporter); format: cell-based; conditions: 28 h incubation; n.a. means no activation
T2 sequence (Q9C5U1 1-1036): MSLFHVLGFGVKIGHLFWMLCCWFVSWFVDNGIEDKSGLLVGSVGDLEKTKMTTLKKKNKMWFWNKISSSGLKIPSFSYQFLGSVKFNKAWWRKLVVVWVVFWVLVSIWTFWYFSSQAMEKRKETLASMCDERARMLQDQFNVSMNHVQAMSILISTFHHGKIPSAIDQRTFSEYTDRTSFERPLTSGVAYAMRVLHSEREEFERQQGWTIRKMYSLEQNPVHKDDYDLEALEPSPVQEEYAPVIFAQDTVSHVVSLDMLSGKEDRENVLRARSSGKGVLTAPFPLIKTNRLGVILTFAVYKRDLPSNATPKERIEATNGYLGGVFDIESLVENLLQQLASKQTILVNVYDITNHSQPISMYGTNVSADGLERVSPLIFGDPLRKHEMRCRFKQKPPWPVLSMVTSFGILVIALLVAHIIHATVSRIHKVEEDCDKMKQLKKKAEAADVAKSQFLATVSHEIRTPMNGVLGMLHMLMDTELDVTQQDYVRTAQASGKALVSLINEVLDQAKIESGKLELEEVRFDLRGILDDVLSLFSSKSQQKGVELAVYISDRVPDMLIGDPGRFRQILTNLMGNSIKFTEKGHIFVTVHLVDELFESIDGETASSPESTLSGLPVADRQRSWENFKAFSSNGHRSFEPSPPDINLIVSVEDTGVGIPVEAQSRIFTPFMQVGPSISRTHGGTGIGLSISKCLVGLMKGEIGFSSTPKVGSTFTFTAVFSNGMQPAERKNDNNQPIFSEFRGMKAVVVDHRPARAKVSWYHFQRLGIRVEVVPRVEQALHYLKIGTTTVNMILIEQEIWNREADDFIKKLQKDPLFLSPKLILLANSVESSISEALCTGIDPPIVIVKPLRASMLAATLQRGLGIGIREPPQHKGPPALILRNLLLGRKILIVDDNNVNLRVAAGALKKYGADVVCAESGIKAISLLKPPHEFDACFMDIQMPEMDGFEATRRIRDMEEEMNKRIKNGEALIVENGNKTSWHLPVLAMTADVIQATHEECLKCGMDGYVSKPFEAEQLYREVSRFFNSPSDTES
Protocol: Escherichia coli strains KMI001 harbouring the plasmid […]4 or […]3 were grown overnight at 25° C. in M9 media enriched with 0.1% casamino acids to OD600 1. The preculture was diluted 1:600 in 1 ml M9 medium containing 0.1% casamino acids and 1 μl stock solution of either the tested compound (10^-7 M-5×10^-5 M) or solvent control (DMSO, ethanol, methanol) were added. The cultures were further grown at 25° C. in microtiter plate, 200 μl per well. […] The cultures were centrifuged and 50 μl aliquots of the supernatant were transferred to microtiter plate containing 2 μl 150 mM 4-methyl umbelliferyl galactoside which was subsequently incubated for 1 h at 37° C. The reaction was stopped by adding 100 μl 0.2 M Na2CO3. […] The EC50 value, the compound concentration activating the receptor to 50%, was calculated from the obtained dose response curves. The values shown in Table 10 are means of three replicates and the entire test was repeated at least twice.

[1] = test system: Amaranthus caudatus cotyledon/hypocotyl explants; test: Amaranthus bioassay (betacyanin content); format: cell-based, Amaranthus caudatus var. atropurpurea; conditions: for Activity (%) [10^−5 mol · l^−1 K = 100%]: at the concentration with highest activity, relative to 10^−5 M kinetin
Protocol: The standard Amaranthus bioassay was performed with the following modifications. The seeds of Amaranthus caudatus var. atropurpurea were surface-sterilised in 10% (w/v) N-chlorobenzenesulfonamide for 10 min and washed 5 times with deionized water. They were placed in 15 cm Petri dishes containing paper tissues saturated with deionized water. After 72 h of cultivation at 25° C. in darkness, the roots of the seedlings were cut off. The explants, consisting of two cotyledons and hypocotyls, were placed in 5 cm Petri dishes onto two layers of filtration paper soaked with 1 ml of the incubation medium containing 10 μmol of Na2HPO4—KH2PO4, pH 6.8, 5 μmol of tyrosine and the compound to be tested. There were 20 explants per dish. The procedure was carried out under green safe light in a darkroom. After 48 h of incubation at 25° C. in darkness, betacyanin was extracted by freezing the explants in 4 ml 3.33 μM acetic acid. The concentration of betacyanin was determined from the absorbances at 537 nm and 620 nm as follows: ΔA=A537nm−A620nm. The values ΔA were plotted against the concentration tested, are means of five replicates and the entire test was repeated at least twice. […] The compounds to be tested were dissolved in dimethylsulfoxide (DMSO) and the solution brought up to 10^−3M with distilled water.
From the obtained data, the concentration with the highest activity was selected for each compound tested. Relative activity of the compound at this concentration was calculated (Tab. 12). The activity obtained for 10^−5 M kinetin (K) was postulated as 100%.

[2] = test system: cytokinin-dependent tobacco callus Nicotiana tabacum L. cv. Wisconsin 38; test: Tobacco callus biotest (plant cell division); format: cell-based; conditions: for Activity (%) [10^−5 mol · l^−1 K = 100%]: at the concentration with highest activity, relative to 10^−5 M kinetin
Protocol: The stimulatory effect of the newly prepared derivatives was tested in the calus biotest using cytokinin-dependent tobacco callus. Cytokinin-dependent tobacco callus Nicotiana tabacum L. cv. Wisconsin 38 was maintained at 25° C. in darkness on modified Murashige-Skoog medium, containing per 1 liter: 4 μmol of nicotinic acid, 2.4 μmol of pyridoxine hydrochloride, 1.2 μmol of thiamine, 26.6 μmol of glycine, 1.37 μmol of glutamine, 1.8 μmol of myo-inositol, 30 g of sucrose, 8 g of agar, 5.37 μmol of NAA and 0.5 μmol of 6-benzylaminopurine. Subcultivation was carried out every three weeks. Fourteen days before the bioassay, the callus tissue was transferred to the media without 6-benzylaminopurine. The biological activity was determined from the increase of the fresh callus weight after four weeks of cultivation. Five replicates were prepared for each concentration of the compound tested and the entire test was repeated twice. […] The compounds to be tested were dissolved in dimethylsulfoxide (DMSO) and the solution brought up to 10^−3 M with distilled water.
From the obtained data, the concentration with the highest activity was selected for each compound tested. Relative activity of the compound at this concentration was calculated (Table 11). The activity obtained for 10^−5 M of the control substance kinetin (K) was postulated as 100%.

NIH-3T3 (fibroblasts) = test: Calcein AM cytotoxicity assay; format: cell-based, Mouse
Description: (§1) Absence of toxic effects against mammalian (especially human) cell lines in a wide concentration range is one of the requirements on compounds intended for use in agriculture and medicine. Because toxic compounds negatively influence metabolic processes in cells, many standard cytotoxicity assays are based on measurement of metabolisation rate of various artificial substrates. Resulting product is then quantified e.g. by means of spectrometry. The assays can be easily modified for use in 96-well plates. For evaluation of cytotoxic effect of compounds of this invention, a microtiter assay based on quantification of metabolisation of Calcein AM was used. The assay is widely used in drug screening programs and in chemosensitivity testing. In live cells, Calcein AM is enzymatically hydrolysed and accumulation of resulting calcein is manifested by green fluorescence.
(§2) Mouse cell lines B16-F10 (melanoma) and NIH-3T3 (fibroblasts) were used as well. The cells were maintained in Nunc/Corning 80 cm^2 plastic tissue culture flasks and cultured in cell culture medium (DMEM with 5 g/l glucose, 2 mM glutamine, 100 U/ml penicillin, 100 μg/ml streptomycin, 10% fetal calf serum and sodium bicarbonate).
(§3) The cell suspensions were prepared and diluted according to the particular cell type and the expected target cell density (2.500-30.000 cells per well based on cell growth characteristics) and pippetted (80 μl) into 96-well plates. Inoculates were allowed a pre-incubation period of 24 hours at 37° C. and 5% CO2 for stabilisation. Tested compound was added in total volume of 20 μl of water at time zero. Usually, test compound was evaluated at six 3-fold dilutions. […] All drug concentrations were tested in triplicates. Incubations of cells with the test compounds lasted for 72 hours at 37° C., in 5% CO2 atmosphere and 100% humidity. At the end of incubation period Calcein AM in PBS was added into final concentration of 1 μg/ml. After another 1 hour of incubation fluorescence (FD) was measured with the Labsystem FIA Reader Fluoroscan Ascent (UK). Growth inhibition (GI) was estimated using the following equitation: GI=(mean FDdrug exposed wells−mean FDblank)/(mean FDcontrol wells−mean FDblank)×100%.

[3] = test system: osteosarcoma cell line HOS; test: Calcein AM cytotoxicity assay; format: cell-based, human; conditions: 72 hours
Description: as §1
as §2, with “Following human cell lines were used for routine screening of the compounds: T-lymphoblastic leukemia cell line CEM, promyelocytic leukemia cell line HL-60, erytroid leukemia cell line K-562, breast carcinoma cell line MCF-7, osteosarcoma cell line HOS and melanoma cell line G-361. Mouse” for “Mouse”
The cell suspensions were prepared and diluted according to the particular cell type and the expected target cell density (2.500-30.000 cells per well based on cell growth characteristics) and pippetted (80 μl) into 96-well plates. Inoculates were allowed a pre-incubation period of 24 hours at 37° C. and 5% CO2 for stabilisation. Tested compound was added in total volume of 20 μl of water at time zero. Usually, test compound was evaluated at six 3-fold dilutions. In routine testing, the highest concentration tested was 166.6 μM. All drug concentrations were tested in triplicates. Incubations of cells with the test compounds lasted for 72 hours at 37° C., in 5% CO2 atmosphere and 100% humidity. At the end of incubation period Calcein AM in PBS was added into final concentration of 1 μg/ml. After another 1 hour of incubation fluorescence (FD) was measured with the Labsystem FIA Reader Fluoroscan Ascent (UK). Growth inhibition (GI) was estimated using the following equitation: GI=(mean FDdrug exposed wells−mean FDblank)/(mean FDcontrol wells−mean FDblank)×100%. The GI50 value, the drug concentration causing 50% reduction of Calcein AM conversion, was calculated from the obtained dose response curves.

[4] = test system: breast carcinoma cell line MCF-7; test: Calcein AM cytotoxicity assay; format: cell-based, human
Description: as §1, §2, §3

[5] = 30 μM iP as substrate, pH 7.4, 37° C., means of three replicates, read-out: IC50, inhibition of recombinant AtCKX2

Row | Compound | IC50 (recombinant AtCKX2; [5]) [µM] | EC50 (AHK3) [µM] | Activity (%) [10^−5 mol · l^−1 K = 100%] [1] [%] | Activity (%) [10^−5 mol · l^−1 K = 100%] [2] [%] | other results
1 | COc1cccc(Nc2nc(N)nc3nc[nH]c23)c1 [Compound 75, 2-Amino-6-(3-methoxyanilino)purine] | 24.7 | 20.4 | 123.6 | – | –
2 | Nc1nc(Nc2ccccc2)c2nc[nH]c2n1 [Compound 64] | – | 25.3 | 125.2 | – | GI50 (NIH-3T3 (fibroblasts); Mus musculus, NIH3T3, 72 hours): > 167 µM; GI50 ([3]; Homo sapiens): > 167 µM; GI50 ([4]; Homo sapiens, MCF7, 72 hours): > 167 µM
3 | O=C(Nc1ccccc1)Nc1cnns1 [thidiazuron, reference compound] | – | – | – | – | IC50 (recombinant AtCKX2): 30 µM
4 | COc1cccc(Nc2nc(SC)nc3[nH]cnc23)c1 [Compound 103] | – | – | 156.4 | 142.8 | GI50 (NIH-3T3 (fibroblasts); 72 hours): > 167 µM; GI50 [3]: > 167 µM; concentration with highest activity ([2]; fresh weight after four weeks): 10^−5 mol · l^−1; GI50 ([4]; 72 hours, read-out: GI50 MCF7): > 167 µM; concentration with highest activity ([1]; 48 h): 10^−5 mol · l^−1
5 | Nc1nc(Nc2cccc(F)c2)c2nc[nH]c2n1 [Compound 69] | 29.4 | > 50 | 113.2 | – | –

More lines, main results first:

Row | IC50 (recombinant AtCKX2; [5]) [µM] | EC50 (AHK3) [µM] | Compound | Activity (%) [10^−5 mol · l^−1 K = 100%] [1] [%] | Activity (%) [10^−5 mol · l^−1 K = 100%] [2] [%] | other results
6 | 15.7 | > 50 | Cc1nc(Nc2cccc(Cl)c2)c2nc[nH]c2n1 [Compound 111] | – | 128.3 | –
7 | 21.8 | – | Cc1nc(Nc2cccc(F)c2)c2nc[nH]c2n1 [Compound 113] | 120.2 | 125.3 | –
